Values of other authors in article PMC2840068 (Vision research, 2009).

Tests used:
VEGF [1] = conditions: clinical trials in AMD patients; ref Gragoudas et al., 2004
VEGF [2] = conditions: ref Chang et al., 2007, Rosenfeld et al., 2006

Question: For pegaptanib, which therapeutic dose response (VEGF [1]) is on record?
Answer: inverse therapeutic dose response

B1: ranibizumab: anti-VEGF antibody (ranibizumab) (antibody, chains of the INN, looked up, V domains shown)
VH: EVQLVESGGGLVQPGGSLRLSCAASGYDFTHYGMNWVRQAPGKGLEWVGWINTYTGEPTYAADFKRRFTFSLDTSKSTAYLQMNSLRAEDTAVYYCAKYPYYYGTSHWYFDVWGQGTLVTVSS
VL: DIQLTQSPSSLSASVGDRVTITCSASQDISNYLNWYQQKPGKAPKVLIYFTSSLHSGVPSRFSGSGSGTDFTLTISSLQPEDFATYYCQQYSTVPWTFGQGTKVEIK
Question: For B1, which “AMD patients’ vision” value (VEGF [2]) is on record?
Answer: improvement of AMD patients’ vision
